From patent publication US7998965B2, “Glutamate aggrecanase inhibitors” (Wyeth LLC, priority 2005, dated 2011)
Read-outs that look alike come from different tables or passages of the source.

Key:
[1] = target: T1, purified recombinant human Aggrecanase-1 (rAgg1) (Homo sapiens, UniProt O75173); experiment: In vitro fluorescence screen for Aggrecanase-1 inhibitors; type: biochemical; details: Table 1; for IC50: read-out: Agg1 IC50; for Ki: enzyme not given, column follows Agg1 IC50, read-out: Ki
T1 sequence (O75173 213-837): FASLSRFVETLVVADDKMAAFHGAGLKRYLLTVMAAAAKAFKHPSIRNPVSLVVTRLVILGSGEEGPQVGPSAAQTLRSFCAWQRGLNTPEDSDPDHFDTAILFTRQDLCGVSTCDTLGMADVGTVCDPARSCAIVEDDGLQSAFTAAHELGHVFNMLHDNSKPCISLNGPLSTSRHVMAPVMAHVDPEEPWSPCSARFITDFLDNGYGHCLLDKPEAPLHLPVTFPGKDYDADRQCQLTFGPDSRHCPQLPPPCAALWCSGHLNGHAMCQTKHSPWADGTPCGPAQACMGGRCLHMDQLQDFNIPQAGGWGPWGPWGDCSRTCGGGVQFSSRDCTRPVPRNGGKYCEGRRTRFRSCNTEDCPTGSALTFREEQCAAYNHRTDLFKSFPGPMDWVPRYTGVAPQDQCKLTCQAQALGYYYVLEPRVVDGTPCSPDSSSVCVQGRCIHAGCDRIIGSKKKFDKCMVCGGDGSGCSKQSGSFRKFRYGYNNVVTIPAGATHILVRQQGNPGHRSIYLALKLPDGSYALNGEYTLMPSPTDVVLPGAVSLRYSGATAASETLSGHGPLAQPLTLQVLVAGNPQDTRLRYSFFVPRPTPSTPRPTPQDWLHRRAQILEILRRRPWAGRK

[2] = target: T2, recombinant human catalytic domain of MMP-13 (Homo sapiens, UniProt P45452); experiment: In vitro fluorescence assay of MMP-13 activity; type: biochemical; details: Table 1; unit inferred
T2 construct: catalytic domain of MMP-13 (165 amino acids, residues 104-268, 19 kDa)

[3] = target: T3, recombinant human catalytic domain of MMP-14 (Homo sapiens, UniProt P50281); experiment: In vitro fluorescence assay of MMP-14 activity; type: biochemical; details: Table 1; for IC50: unit inferred; for MMP-14: unit not given
T3 construct: 177 amino acids corresponding to Tyr89-Gly265 of mature human enzyme; purchased Chemicon International, Inc. CC1041

[4] = target: T4, purified recombinant human Aggrecanase-2 (Ag2t-Phe628-Strep) (Homo sapiens, UniProt Q9UNA0); experiment: In vitro fluorescence screen for Aggrecanase-2 inhibitors; type: biochemical; details: Table 1; read-out: Agg 2 IC50
T4 construct: the form used is denoted as Ag2t-Phe628-Strep (MW=41,737)
T4 sequence (Q9UNA0 262-628): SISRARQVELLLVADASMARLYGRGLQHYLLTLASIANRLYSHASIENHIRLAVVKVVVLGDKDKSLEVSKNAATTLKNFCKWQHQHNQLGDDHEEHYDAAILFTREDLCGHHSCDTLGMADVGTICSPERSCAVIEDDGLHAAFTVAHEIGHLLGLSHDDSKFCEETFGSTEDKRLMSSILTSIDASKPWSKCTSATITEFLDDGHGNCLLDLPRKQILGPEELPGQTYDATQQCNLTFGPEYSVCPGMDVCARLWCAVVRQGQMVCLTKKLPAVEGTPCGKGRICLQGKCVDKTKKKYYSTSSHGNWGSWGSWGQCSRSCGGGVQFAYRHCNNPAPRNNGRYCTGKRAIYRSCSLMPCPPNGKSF

MMP-1 = target: T5, MMP-1 (Homo sapiens, UniProt P03956); experiment: MMP-1 of Table 1; type: biochemical; details: for IC50: unit inferred; for MMP-1: unit not given
T5 sequence (P03956 100-469): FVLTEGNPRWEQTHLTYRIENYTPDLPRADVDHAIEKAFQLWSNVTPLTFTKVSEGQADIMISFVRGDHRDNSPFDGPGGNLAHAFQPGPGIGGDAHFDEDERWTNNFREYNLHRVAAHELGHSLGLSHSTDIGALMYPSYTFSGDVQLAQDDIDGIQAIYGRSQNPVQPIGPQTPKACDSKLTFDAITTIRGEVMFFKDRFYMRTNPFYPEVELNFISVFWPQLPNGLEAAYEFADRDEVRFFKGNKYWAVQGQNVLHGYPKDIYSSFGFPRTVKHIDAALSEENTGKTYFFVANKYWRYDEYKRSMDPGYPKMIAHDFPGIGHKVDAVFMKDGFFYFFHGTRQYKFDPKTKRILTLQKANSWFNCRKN

recombinant human MMP-2 = target: T6, recombinant human MMP-2 (Homo sapiens, UniProt P08253); experiment: In vitro fluorescence assay of MMP-2 activity
T6 sequence (P08253 110-660): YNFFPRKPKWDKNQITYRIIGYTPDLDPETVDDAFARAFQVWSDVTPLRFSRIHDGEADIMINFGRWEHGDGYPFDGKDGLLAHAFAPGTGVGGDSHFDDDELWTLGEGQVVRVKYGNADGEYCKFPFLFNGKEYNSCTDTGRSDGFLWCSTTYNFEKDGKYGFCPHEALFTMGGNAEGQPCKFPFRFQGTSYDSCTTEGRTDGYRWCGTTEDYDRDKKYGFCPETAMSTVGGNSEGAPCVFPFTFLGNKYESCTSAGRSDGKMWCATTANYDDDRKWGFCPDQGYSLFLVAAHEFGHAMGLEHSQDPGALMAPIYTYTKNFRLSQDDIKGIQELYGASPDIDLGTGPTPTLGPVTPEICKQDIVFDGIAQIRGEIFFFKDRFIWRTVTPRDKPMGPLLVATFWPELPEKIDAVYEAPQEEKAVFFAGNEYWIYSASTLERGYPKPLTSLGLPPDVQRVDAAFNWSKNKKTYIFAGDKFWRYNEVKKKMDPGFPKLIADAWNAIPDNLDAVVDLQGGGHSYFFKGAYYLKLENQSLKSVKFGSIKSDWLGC
Description: A continuous assay was used in which the substrate is a synthetic peptide containing a fluorescent group (7-methoxycoumarin; Mca), which is quenched by energy transfer to a 2,4-dinitrophenyl group. […] The source of enzyme in the assay was the recombinant human MMP-2 (66 kDa; Oncogene Research Products (catalog number PF023 from Calbiochem)). The substrate used was the peptide Mca-PQGL-(3-[2,4-dinitrophenyl]-L-2,3-diaminopropionyl)-AR-OH. The assay buffer consisted of 50 mM Hepes (pH 7.4), 100 mM NaCl, 5 mM CaCl2, and 0.005% Brij-35. […] The plates were then incubated at 30° C. for 15 minutes. The enzymatic reactions were initiated by adding the substrate to a final concentration of 20 μM, and mixing 10 times with a pipette. The final DMSO concentration in the assay was 6.0%.
Plots of the inhibitor concentration vs. the percent inhibition were fit to the following equation: y=(a−d)/[^1+(x/c)^b]+d, a general sigmoidal curve with Hill slope, a to d. x is the inhibitor concentration under test. y is the percent inhibition. a is the limiting response as x approaches zero. As x increases without bound, y tends toward its limit d. c is the inflection point (IC50) for the curve. That is, y is halfway between the lower and upper asymptotes when x=c. b is the slope factor or Hill coefficient.

[5] = tested on: bovine articular cartilage treated with Interleukin 1 alpha (IL-1α); experiment: Bovine articular cartilage explant cultures: inhibition of degradation of proteoglycan; type: cell-based; details: inhibitory effect expressed as percentage, concentration not printed
Excerpt: This in vitro procedure was used to evaluate the effect and relative potencies of small molecule compounds to inhibit the degradation of proteoglycan in articular cartilage treated with Interleukin 1 alpha (IL-1α). Treatment of articular cartilage with IL 1α induces expression of a cascade of enzymes that initiates cartilage matrix degradation. This assay was utilized to select small molecule compounds that inhibit the enzyme activity and protects cartilage matrix degradation.
Articular cartilage: bovine metacarpal joints were disinfected with 10% Wescodyne followed by 70% ethanol. 6 mm articular cartilage discs were prepared and rinsed once in PBS and medium, respectively. The discs were cultured in a stirring flask with serum-free medium for 5 days for equilibrium with one medium change. Small molecule compounds: stock solutions of test small molecule compounds (usually at 5 mg/ml) were prepared in DMSO. Working solutions were diluted with DMSO and generally ranged from 0.1 μg/ml to 10 ug/ml. The DMSO stocks were stored at […]. Articular cartilage explant culture medium: DMEM, 2 mM glutamax, 100 U/ml of antibiotic and antimycotic, 50 μg/ml ascorbate and 10 mM Hepes (pH-7.0). Proteoglycan content-Dimethyl methylene blue (DMMB) solution: […] DMMB, 10 ml 100% ethanol, 29.5 ml of 1M NaOH, 3.5 ml of 98% formic acid and water to 1 L. Chondroitin sulphate sodium salt: 1.56-200 ug/ml serial dilutions.
For the explant culture, cartilage discs were cultured in serum-free medium for 48 h or more. Discs were weighed and transferred to a 96-well plate, 1 disc per-well. 0.2 ml of medium containing 5 ng/ml of IL-1 and different concentrations of compounds were added to each well, with 3 wells allocated for each treatment. The medium was collected at days 1, 2, & 3 and replaced accordingly.
For the DMMB assay, conditioned medium (CM) samples were diluted with medium. 10 ul of each standard or diluted sample was added in duplicate into a 96-well-plate and 200 μl of DMMB solution was added into each well. Absorbance at 520 nm was measured for each well. Proteoglycan contents in CM were calculated daily.
The proteoglycan contents are expressed as ug per mg of cartilage. The inhibitory effect of the compounds is expressed as percentage. (See, Tortorella, M. D. et al., Science 1999, 284, 1664-1666).

| Structure (SMILES) | IC50 [1] | IC50 [2] | IC50 [3] | IC50 [4] | IC50 (MMP-1) | IC50 (recombinant human MMP-2) | MMP-1 (MMP-1) | Ki [1] | MMP-14 [3] | IC50 (recombinant human MMP-2; read-out: MMP-2, Table 1, unit inferred) | bovine ([5]; Table 1, first of two columns headed bovine) | bovine ([5]; Table 1, second of two columns headed bovine) |
| --- | --- | --- | --- | --- | --- | --- | --- | --- | --- | --- | --- | --- |
| O=C(CC[C@H](NC(=O)c1ccc(-c2ccccc2)cc1)C(=O)NCc1cccc(OC(F)(F)F)c1)NO [Example 33D, N^2-(1,1′-biphenyl-4-ylcarbonyl)-N^5-hydroxy-N^1-[3-(trifluoromethoxy)benzyl]-L-α-glutamamide] | < 10 nM | 52 nM | 73.6 nM | 13.4 nM | ~1560 nM | 3.3 nM |  |  |  |  |  |  |
| COc1cccc(CCNC(=O)[C@H](CCC(=O)NO)NC(=O)c2ccc(-c3ccccc3)cc2)c1 [Example 33C, N^2-(1,1′-biphenyl-4-ylcarbonyl)-N^5-hydroxy-N^1-[2-(3-methoxyphenyl)ethyl]-L-α-glutamamide] | < 10 nM | 29 nM | 110 nM | 25 nM | 1500 nM |  |  |  |  |  |  |  |
| O=C(O)CC[C@H](NC(=O)c1ccc(-c2ccccc2)cc1)C(=O)NCc1ccc(Cl)c(Cl)c1 [Example 8BB, N^2-(1,1′-biphenyl-4-ylcarbonyl)-N^1-(3,4-dichlorobenzyl)-L-α-glutamine] | 74 nM | 19000 nM | ~25000 nM | 650 nM |  | 2300 nM | no inh |  |  |  |  |  |
| O=C(O)CC[C@H](NC(=O)c1ccc(-c2ccccc2)cc1)C(=O)NCCc1ccc(F)cc1 [Example 8SS, N^2-(biphenyl-4-ylcarbonyl)-N^1-[2-(4-fluorophenyl)ethyl]-L-α-glutamine] | 100 nM | ~50000 nM | > 66600 nM | 800 nM |  | 12400 nM | no inh |  |  |  |  |  |
| CC(C)(Cc1ccc(Cl)cc1)NC(=O)[C@H](CCC(=O)O)NC(=O)c1ccc(-c2ccccc2)cc1 [Example 8NN, N^2-(biphenyl-4-ylcarbonyl)-N^1-[2-(4-chlorophenyl)-1,1-dimethylethyl]-L-α-glutamine] | < 30 nM | ~50000 nM |  | 133 nM | > 200000 nM | 9000 nM |  | 14 nM | no inh |  |  |  |
| COc1cccc(CCNC(=O)[C@H](CCC(=O)O)NC(=O)c2ccc(-c3ccccc3)cc2)c1 [Example 8X, N^2-(1,1′-biphenyl-4-ylcarbonyl)-N^1-[2-(3-methoxyphenyl)ethyl]-L-α-glutamine] | 100 nM | ~67000 nM | ~25000 nM | 1100 nM |  | 7000 nM | no inh |  |  |  |  |  |
| O=C(O)CC[C@H](NC(=O)c1ccc(-c2ccccc2)cc1)C(=O)NCCc1cccs1 [Example 8WW, N^2-(biphenyl-4-ylcarbonyl)-N^1-[2-(2-thienyl)ethyl]-L-α-glutamine] | 70 nM | ~50000 nM | > 66600 nM | 350 nM |  | 13300 nM | no inh |  |  |  |  |  |
| COc1cc(CNC(=O)[C@H](CCC(=O)NO)NC(=O)c2ccc(-c3ccccc3)cc2)cc(OC)c1OC [Example 33A, N^2-(1,1′-biphenyl-4-ylcarbonyl)-N^5-hydroxy-N^1-(3,4,5-trimethoxybenzyl)-L-α-glutamamide] | < 10 nM | 32 nM | 112 nM | 2.6 nM | 1750 nM |  |  |  |  | 4.7 nM |  |  |
| CCC(C)NC(=O)[C@H](CCC(=O)O)NC(=O)c1ccc(-c2ccccc2)cc1 (stereo partly drawn) [Example 8BBB, N^2-(1,1′-biphenyl-4-ylcarbonyl)-N^1-(sec-butyl)-L-α-glutamine] | 32 nM | > 50000 nM |  | 700 nM | > 200000 nM |  |  | 130 nM | no inh |  | 35% | 0% |
| COc1ccccc1CNC(=O)[C@H](CCC(=O)O)NC(=O)c1ccc(-c2ccccc2)cc1 [Example 8Z, N^2-(1,1′-biphenyl-4-ylcarbonyl)-N^1-(2-methoxybenzyl)-L-α-glutamine] | 80 nM | ~67000 nM | ~25000 nM | 680 nM |  | 3820 nM | no inh |  |  |  |  |  |
| O=C(O)CC[C@H](NC(=O)c1ccc(-c2ccccc2)cc1)C(=O)NCCCCCCO [Example 8XXX, N^2-(biphenyl-4-ylcarbonyl)-N^1-(6-hydroxyhexyl)-L-α-glutamine] | 30 nM | ~50000 nM | > 200000 nM | 930 nM |  | 7900 nM | no inh |  |  |  |  |  |
| O=C(O)CC[C@H](NC(=O)c1ccc(-c2ccccc2)cc1)C(=O)NC1Cc2ccccc2C1 [Example 6A, N^2-(1,1′-biphenyl-4-ylcarbonyl)-N^1-2,3-dihydro-1H-inden-2-yl-L-α-glutamine] | 150 nM | > 50000 nM | > 200000 nM | 740 nM | > 50000 nM | 29800 nM |  |  |  |  |  |  |
